# Read-outs that look alike come from different tables or passages of the source.
# Legend:
# [1] = test system: HCV genotype 1a (H77 strain) replicon in HUH-7 cells; test: HCV replicon luciferase reporter assay, genotype 1a; type: cell-based; conditions: Hepatitis C virus, Huh-7, 72 h, 3 days incubation
# Outline: (§1)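 Replicon inhibition for both genotypes was measured as Renilla luciferase signal (EnduRen, 7.5 μM final, 2 h) after 3-day, 37° C exposure of replicon-bearing HUH-7 cells in 4% FCS DMEM, 0.5% DMSO. The 1b construct carries S1179I; the 1a H77 construct carries P1496L and S2204I. Twenty-point, 3-fold dilutions were fitted four-parametrically for EC50, and CC50 was taken from multiplexed Cell Titer-Blue.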
# [2] = test system: HCV genotype 1b (Con1) replicon in HUH-7 cells; test: HCV replicon luciferase reporter assay, genotype 1b; type: cell-based; conditions: Hepatitis C virus, Huh-7, 72 h, 3 days incubation
# Outline: as §1
# [3] = HCV genotype 1a replicon luciferase assay, range class, read-out: LE_1a (EC50, range)
# [4] = HCV genotype 1b replicon luciferase assay, range class, read-out: LE_1b (EC50, range)
# [5] = HCV genotype 1a replicon luciferase, read-out: LE_1a (EC50, range)
# [6] = HCV genotype 1b replicon luciferase, read-out: LE_1b (EC50, range)
# [7] = GETYPE1A, HCV genotype 1a replicon luciferase, read-out: LE_1a (EC50, range)
# [8] = GETYPE1B, HCV genotype 1b replicon luciferase, read-out: LE_1b (EC50, range)
SMILES,"EC50 [1, 3] [nM]","EC50 [2, 4] [nM]","EC50 [1, 5] [nM]","EC50 [2, 6] [nM]",further results
"C[C@@H]1CC/C=C\[C@@H]2C[C@@]2(C(=O)NS(=O)(=O)C2CC2)NC(=O)[C@@H]2C[C@@H](Oc3ncc(OC4CC4)c4ccccc34)CN2C(=O)[C@@H](NC(=O)OC(C)(C)C)[C@H](C)C1 [Compound 22, tert-butyl ((2R,6S,7R,9R,13aS,14aR,16aS,Z)-2-((4-cyclopropoxyisoquinolin-1-yl)oxy)-14a-((cyclopropylsulfonyl)carbamoyl)-7,9-dimethyl-5,16-dioxo-1,2,3,5,6,7,8,9,10,11,13a,14,14a,15,16,16a-hexadecahydrocyclopropa[e]pyrrolo[1,2-a][1,4]diazacyclopentadecin-6-yl)carbamate]",< 5.46,< 5.46,–,–,"EC50 ([1]; HCV genotype 1a replicon luciferase assay, read-out: LE_1a (EC50)): 0.43 nM; EC50 ([2]; HCV genotype 1b replicon luciferase assay, read-out: LE_1b (EC50)): 0.4 nM"
"COc1ccc2c(O[C@@H]3C[C@H]4C(=O)N[C@]5(C(=O)NS(=O)(=O)C6CC6)C[C@H]5/C=C\CC[C@@H](C)C[C@@H](C)[C@H](NC(=O)OC(C)(C)C)C(=O)N4C3)nc(-c3ccc(OC)c(Cl)c3)cc2c1 [Compound 3048, tert-butyl ((2R,6S,7R,9R,13aS,14aR,16aS,Z)-2-((3-(3-chloro-4-methoxyphenyl)-6-methoxyisoquinolin-1-yl)oxy)-14a-((cyclopropylsulfonyl)carbamoyl)-7,9-dimethyl-5,16-dioxo-1,2,3,5,6,7,8,9,10,11,13a,14,14a,15,16,16a-hexadecahydrocyclopropa[e]pyrrolo[1,2-a][1,4]diazacyclopentadecin-6-yl)carbamate]",< 5.46,< 5.46,–,–,–
"COc1cccc2c(O[C@@H]3C[C@H]4C(=O)N[C@]5(C(=O)NS(=O)(=O)C6(CF)CC6)C[C@H]5/C=C\CC[C@@H](C)C[C@@H](C)[C@H](NC(=O)OC(C)(C)C)C(=O)N4C3)nccc12 [Compound 3039, tert-butyl ((2R,6S,7R,9R,13aS,14aR,16aS,Z)-14a-(((1-(fluoromethyl)cyclopropyl)sulfonyl)carbamoyl)-2-((5-methoxyisoquinolin-1-yl)oxy)-7,9-dimethyl-5,16-dioxo-1,2,3,5,6,7,8,9,10,11,13a,14,14a,15,16,16a-hexadecahydrocyclopropa[e]pyrrolo[1,2-a][1,4]diazacyclopentadecin-6-yl)carbamate]",< 5.46,< 5.46,–,–,–
"COc1ccc2c(O[C@@H]3C[C@H]4C(=O)N[C@]5(C(=O)NS(=O)(=O)C6(C)CC6)C[C@H]5/C=C\CC[C@H](C)C[C@@H](C)[C@H](NC(=O)OC(C)(C)C(F)(F)F)C(=O)N4C3)nc(-c3ccc(N4CCOCC4)cc3)cc2c1 [Compound 5198, 1,1,1-trifluoro-2-methylpropan-2-yl((2R,6S,7R,9S,13aS,14aR,16aS,Z)-2-((6-methoxy-3-(4-morpholinophenyl)isoquinolin-1-yl)oxy)-7,9-dimethyl-14a-(((1-methylcyclopropyl)sulfonyl)carbamoyl)-5,16-dioxo-1,2,3,5,6,7,8,9,10,11,13a,14,14a,15,16,16a-hexadecahydrocyclopropa[e]pyrrolo[1,2-a][1,4]diazacyclopentadecin-6-yl)carbamate]",–,–,4.82 to 103,< 5.46,–
"C[C@@H]1CC/C=C\[C@@H]2C[C@@]2(C(=O)NS(=O)(=O)C2(C)CC2)NC(=O)[C@@H]2C[C@@H](Oc3nccc4c5c(ccc34)OCCO5)CN2C(=O)[C@@H](NC(=O)OCC2(C)CC2)[C@H](C)C1 [Compound 5251, (1-methylcyclopropyl)methyl ((2R,6S,7R,9R,13aS,14aR,16aS,Z)-2-((2,3-dihydro-[1,4]dioxino[2,3-f]isoquinolin-7-yl)oxy)-7,9-dimethyl-14a-(((1-methylcyclopropyl)sulfonyl)carbamoyl)-5,16-dioxo-1,2,3,5,6,7,8,9,10,11,13a,14,14a,15,16,16a-hexadecahydrocyclopropa[e]pyrrolo[1,2-a][1,4]diazacyclopentadecin-6-yl)carbamate]",–,–,< 5.46,< 5.46,–
COc1ccc2nc(C)c(O[C@@H]3C[C@H]4C(=O)N[C@]5(C(=O)NS(=O)(=O)C6(C)CC6)C[C@H]5/C=C\CC[C@@H](C)C[C@@H](C)[C@H](NC(=O)OC(C)(C)C(F)(F)F)C(=O)N4C3)nc2c1 [Compound 4366],–,–,–,–,"EC50 ([1]; GETYPE1A, HCV genotype 1a replicon luciferase, read-out: LE_1a (EC50)): 0.58 nM; EC50 [1, 7]: 0.51 to 1 nM; EC50 ([2]; GETYPE1B, HCV genotype 1b replicon luciferase, read-out: LE_1b (EC50)): 0.25 nM; EC50 [2, 8]: 0.1 to 0.5 nM"
"[2H]C([2H])([2H])C(OC(=O)N[C@@H]1C(=O)N2C[C@H](Oc3nccc4c5c(ccc34)N(C)CCO5)C[C@H]2C(=O)N[C@]2(C(=O)NS(=O)(=O)C3CC3)C[C@H]2/C=C\CC[C@@H](C)C[C@H]1CC)(C([2H])([2H])[2H])C(F)(F)F [Compound 5312, 1,1,1,3,3,3-hexadeutero-2-(trifluoromethyl)propan-2-yl((2R,6S,7R,9R,13aS,14aR,16aS,Z)-14a-((cyclopropylsulfonyl)carbamoyl)-7-ethyl-9-methyl-2-((4-methyl-3,4-dihydro-2H-[1,4]oxazino[2,3-f]isoquinolin-7-yl)oxy)-5,16-dioxo-1,2,3,5,6,7,8,9,10,11,13a,14,14a,15,16,16a-hexadecahydrocyclopropa[e]pyrrolo[1,2-a][1,4]diazacyclopentadecin-6-yl)carbamate]",–,–,< 5.46,< 5.46,–
"COc1cnc(O[C@@H]2C[C@H]3C(=O)N[C@]4(C(=O)NS(=O)(=O)C5(CF)CC5)C[C@H]4/C=C\CC[C@H](C)C[C@@H](C)[C@H](NC(=O)OC4(C5CC5)COC4)C(=O)N3C2)c2ccccc12 [Compound 1059, 3-cyclopropyloxetan-3-yl((2R,6S,7R,9S,13aS,14aR,16aS,Z)-14a-(((1-(fluoromethyl)cyclopropyl)sulfonyl)carbamoyl)-2-((4-methoxyisoquinolin-1-yl)oxy)-7,9-dimethyl-5,16-dioxo-1,2,3,5,6,7,8,9,10,11,13a,14,14a,15,16,16a-hexadecahydrocyclopropa[e]pyrrolo[1,2-a][1,4]diazacyclopentadecin-6-yl)carbamate]",4.82 to 103,4.82 to 103,–,–,–
CC[C@@H]1C[C@H](C)CC/C=C\[C@@H]2C[C@@]2(C(=O)NS(=O)(=O)C2(C)CC2)NC(=O)[C@@H]2C[C@@H](Oc3ncc(N4CCN(S(C)(=O)=O)CC4)c4cc(OC)ccc34)CN2C(=O)[C@H]1NC(=O)OC(C)(C)C(F)(F)F [Compound 4254],–,–,–,–,"EC50 [1, 7]: 1.01 to 5 nM; EC50 [2, 8]: 0.51 to 1 nM"
"CC(C)Oc1cc2c(Cl)cccc2c(O[C@@H]2C[C@H]3C(=O)N[C@]4(C(=O)NS(=O)(=O)C5CC5)C[C@H]4/C=C\CC[C@H](C)C[C@@H](C)[C@H](NC(=O)OC(C)(C)C(F)(F)F)C(=O)N3C2)n1 [Compound 1093, 1,1,1-trifluoro-2-methylpropan-2-yl((2R,6S,7R,9S,13aS,14aR,16aS,Z)-2-((5-chloro-3-isopropoxyisoquinolin-1-yl)oxy)-14a-((cyclopropylsulfonyl)carbamoyl)-7,9-dimethyl-5,16-dioxo-1,2,3,5,6,7,8,9,10,11,13a,14,14a,15,16,16a-hexadecahydrocyclopropa[e]pyrrolo[1,2-a][1,4]diazacyclopentadecin-6-yl)carbamate]",4.82 to 103,< 5.46,–,–,–
"C[C@@H]1CC/C=C\[C@@H]2C[C@@]2(C(=O)NS(=O)(=O)C2(C)CC2)NC(=O)[C@@H]2C[C@@H](Oc3cnc4ccc(F)cc4n3)CN2C(=O)[C@@H](NC(=O)OC(C)(C)C)[C@H](C)C1 [Compound 4179, tert-butyl (2R,6S,7R,9R,13aS,14aR,16aS,Z)-2-(7-fluoroquinoxalin-2-yloxy)-7,9-dimethyl-14a-(1-methylcyclopropylsulfonylcarbamoyl)-5,16-dioxo-1,2,3,5,6,7,8,9,10,11,13a,14,14a,15,16,16a-hexadecahydrocyclopropa[e]pyrrolo[1,2-a][1,4]diazacyclopentadecin-6-ylcarbamate]",–,–,< 5.46,< 5.46,–
